We go through 19 compounds from patent US20060100431A1, “Biologically active compounds” (Amura Therapeutics Limited, priority 2002, published 2006).

Read-outs that look alike come from different tables or passages of the source. Bounds are passed on as bounds.

The target in experiment [1] is Wild-type cruzipain (Trypanosoma cruzi, UniProt P25779). As to the kind of experiment: Trypanosoma cruzi cruzipain peptidase activity assay (Ki). The format is biochemical. A digest of the protocol: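 Native cruzipain from T. cruzi Dm28 epimastigotes, 2.5 nM, in 100 mM sodium phosphate pH 6.75 with 1 mM EDTA and 10 mM L-cysteine, 25 °C, DMSO <1%. Rates taken from continuous fluorogenic substrate read; Ki by regression assuming reversible pure-competitive inhibition.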
Wild-type cruzipain, sequence (P25779 whole entry): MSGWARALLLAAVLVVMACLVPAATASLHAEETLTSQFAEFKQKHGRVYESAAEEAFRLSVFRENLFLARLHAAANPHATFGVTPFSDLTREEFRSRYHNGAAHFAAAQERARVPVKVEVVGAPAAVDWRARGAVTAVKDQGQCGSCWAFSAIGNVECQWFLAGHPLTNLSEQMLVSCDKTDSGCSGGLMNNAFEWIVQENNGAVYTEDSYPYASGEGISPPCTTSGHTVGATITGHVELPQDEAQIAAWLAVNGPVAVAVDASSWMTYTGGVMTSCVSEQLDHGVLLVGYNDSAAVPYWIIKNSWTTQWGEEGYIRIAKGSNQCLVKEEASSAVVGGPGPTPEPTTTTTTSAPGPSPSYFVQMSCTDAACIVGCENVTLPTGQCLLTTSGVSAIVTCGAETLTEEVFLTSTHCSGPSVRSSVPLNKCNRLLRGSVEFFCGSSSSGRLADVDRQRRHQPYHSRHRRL

Experiment [2] concerns the target T1, human cathepsin B (Homo sapiens, UniProt P07858).
T1 construct: purchased CN Biosciences
As to the kind of experiment: Cathepsin B peptidase activity assay (Ki). It counts as biochemical. To be noted: read-out: Ki, inhibitors of cathepsin B. The method, boiled down:
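Buffer: 10 mM bis-tris-propane pH 6.5, 1 mM EDTA, 5 mM 2-mercaptoethanol, 1 mM CaCl2; DMSO <1%. Ki assumed reversible, pure-competitive, from Ki^app=Ki(1+[So]/KM^app) by non-linear regression.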

Where [3] appears, read: read-out: Ki, inhibitors of cruzain and cruzipains.
Where [4] appears, read: Table 5, read-out: Ki Cruzipain.

As a reminder, the Ki is the equilibrium dissociation constant of an inhibitor or competing ligand from its target. For the compound `CC(C)CC(NC(=O)c1ccc(N)cc1)C(=O)N1NC[C@@H]2[C@H]1C(=O)CN2C(=O)c1ccccc1` (stereo partly drawn) [Example 249b, (3aR,6aS)-4-amino-N-[1-(4-benzoyl-6-oxo-hexahydropyrrolo[3,2-c]pyrazole-1-carbonyl)-3-methylbutyl)benzamide], the inhibition constant Ki in experiment [1] (setting [3]) and in experiment [2] was less than 5 µM each time.
For `CC(C)(C)c1ccc(C(=O)N[C@@H](Cc2ccc(O)cc2)C(=O)N2CC[C@@H]3[C@H]2C(=O)CN3C(=O)c2ccccc2)cc1` [Example 346, (3aR,6aS)-N-[(1S)-2-(4-Benzoyl-6-oxo-hexahydro-pyrrolo[3,2-b]pyrrol-1-yl)-1-(4-hydroxybenzyl)-2-oxo-ethyl]-4-tert-butyl-benzamide], in experiment [1] (setting [4]), the Ki was less than 0.2 µM.
For the compound `CC(C)C[C@H](NC(=O)c1ccc(C(C)(C)C)cc1)C(=O)N1NC[C@@H]2[C@H]1C(=O)CN2C(=O)c1ccccc1` [Example 249a, (3aR,6aS)-N-[(1S)-1-(4-benzoyl-6-oxo-hexahydropyrrolo[3,2-c]pyrazole-1-carbonyl)-3-methylbutyl]-4-tert-butylbenzamide], the Ki in experiment [1] (setting [3]) and in experiment [2] was less than 5 µM in each case.
In the case of `CC(C)C[C@H](NC(=O)c1ccc(N2CCNCC2)cc1)C(=O)N1CC[C@@H]2[C@H]1C(=O)CN2C(=O)c1ccccc1` [Example 194, (3aR,6aS)-N-[(1S)-1-(4-Benzoyl-6-oxo-hexahydro-pyrrolo[3,2-b]pyrrole-1-carbonyl)-3-methyl-butyl]-4-piperazin-1-yl-benzamide], the Ki in experiment [1] (setting [3]) and in experiment [2] was less than 5 µM each time.
Turning to `O=C(N[C@@H](Cc1ccc(O)cc1)C(=O)N1CC[C@@H]2[C@H]1C(=O)CN2C(=O)c1ccccc1)c1cccc2ccccc12` [Example 296, (3aR,6aS)-Naphthalene-1-carboxylic acid [(1S)-2-(4-benzoyl-6-oxo-hexahydro-pyrrolo[3,2-b]pyrrole-1-yl)-1-(4-hydroxybenzyl)-2-oxo-ethyl]-amide], the Ki in experiment [1] (setting [4]) was greater than 1 µM; in experiment [1] (setting [3]) it was less than 5 µM; in experiment [2], less than 5 µM.
For the compound `CC(C)C[C@H](NC(=O)c1ccc(-c2cccs2)cc1)C(=O)N1CC[C@@H]2[C@H]1C(=O)CN2C(=O)c1ccccc1` [Example 2, (3aR,6aS)-N-[(1S)-1-(4-Benzoyl-6-oxo-hexahydro-pyrrolo[3,2-b]pyrrole-1-carbonyl)-3-methyl-butyl]-4-thiophen-2-yl-benzamide], the Ki was greater than 0.3 µM in experiment [1] (setting [4]), less than 5 µM in experiment [1] (setting [3]) and less than 5 µM in experiment [2].
For `CC(C)C[C@H](NC(=O)c1cccc(N2CCNCC2)c1)C(=O)N1CC[C@@H]2[C@H]1C(=O)CN2C(=O)c1ccccc1` [Example 247, (3aR,6aS)-N-[(1S)-1-(4-Benzoyl-6-oxo-hexahydro-pyrrolo[3,2-b]pyrrole-1-carbonyl)-3-methyl-butyl]-3-piperazin-1-yl-benzamide], the Ki in experiment [1] (setting [3]) and in experiment [2] was less than 5 µM in each case.
As to `CC(=O)N[C@@H](CC(C)C)C(=O)N1CC(=O)[C@@H]2[C@H]1CCN2C(=O)[C@H](CC(C)C)NC(=O)c1ccc(N(C)C)cc1` [Example 151, (3aR,6aS)-N-{(1S)-1-[4-((2S)-2-Acetylamino-4-methyl-pentanoyl)-6-oxo-hexahydro-pyrrolo[3,2-b]pyrrole-1-carbonyl]-3-methyl-butyl}-4-dimethylamino-benzamide], the Ki in experiment [1] (setting [3]) and in experiment [2] was less than 5 µM each time.
For the compound `CC(C)C[C@H](NC(=O)c1ccc(N)cc1)C(=O)N1NC[C@@H]2[C@H]1C(=O)CN2C(=O)c1cccc(S(C)(=O)=O)c1` [Example 249c, (3aR,6aS)-4-amino-N-{(1S)-1-[4-(3-methanesulfonylbenzoyl)-6-oxo-hexahydropyrrolo [3,2-c]pyrazole-1-carbonyl]-3-methylbutyl}benzamide], the Ki in experiment [1] (setting [3]) and in experiment [2] was less than 5 µM each time.
Take `CC(C)C[C@H](NC(=O)c1ccc(OC(F)(F)F)cc1)C(=O)N1CC[C@@H]2[C@H]1C(=O)CN2C(=O)c1ccccc1` [Example 173, (3aR,6aS)-N-[(1S)-1-(4-Benzoyl-6-oxo-hexahydro-pyrrolo[3,2-b]pyrrole-1-carbonyl)-3-methyl-butyl]-4-trifluoromethoxy-benzamide]: the inhibition constant (Ki) in experiment [1] (setting [3]) and in experiment [2] was less than 5 µM each time.
For `CC(C)C[C@H](NC(=O)c1ccc(N(C)C)cc1)C(=O)N1CC[C@@H]2[C@H]1C(=O)CN2C(=O)c1ccccc1` [Example 14, (3aR,6aS)-N-[(1S)-1-(4-Benzoyl-6-oxo-hexahydro-pyrrolo[3,2-b]pyrrole-1-carbonyl)-3-methyl-butyl]-4-dimethylamino-benzamide], the Ki in experiment [1] (setting [3]) and in experiment [2] was less than 5 µM in each case.
For the compound `CC(C)C[C@H](NC(=O)c1ccc(N(C)C)cc1)C(=O)N1CC[C@@H]2[C@H]1C(=O)CN2C(=O)[C@@H](NC(=O)OCc1ccccc1)C(C)C` [Example 158, (3aS,6aR)-((S)-1-{4-[(2S)-2-(4-Dimethylamino-benzoylamino)-4-methyl-pentanoyl]-3-oxo-hexahydro-pyrrolo[3,2-b]pyrrole-1-carbonyl}-2-methyl-propyl)-carbamic acid benzyl ester], the Ki in experiment [1] (setting [3]) and in experiment [2] was less than 5 µM throughout.
`CC(C)C[C@H](NC(=O)c1ccc2c(c1)CCCN2)C(=O)N1CC[C@@H]2[C@H]1C(=O)CN2C(=O)c1ccccc1` [Example 87, (3aR,6aS)-1,2,3,4-Tetrahydro-quinoline-6-carboxylic acid [(1S)-1-(4-benzoyl-6-oxo-hexahydro-pyrrolo[3,2-b]pyrrole-1-carbonyl)-3-methyl-butyl]-amide]: the inhibition constant Ki in experiment [1] (setting [3]) and in experiment [2] was less than 5 µM each time.
As to `CC(C)C[C@H](NC(=O)c1ccc(-n2cccn2)cc1)C(=O)N1CC[C@@H]2[C@H]1C(=O)CN2C(=O)c1ccccc1` [Example 91, (3aR,6aS)-N-[(1S)-1-(4-Benzoyl-6-oxo-hexahydro-pyrrolo[3,2-b]pyrrole-1-carbonyl)-3-methyl-butyl]-4-pyrazol-1-yl-benzamide], the inhibition constant (Ki) in experiment [1] (setting [3]) and in experiment [2] was less than 5 µM each time.
Regarding `CC(C)C[C@H](NC(=O)c1ccc(N(C)C)cc1)C(=O)N1CC[C@@H]2[C@H]1C(=O)CN2C(=O)c1csc2ccccc12` [Example 103, (3aR,6aS)-N-{(1S)-1-[4-(Benzo[b]thiophene-3-carbonyl)-6-oxo-hexahydro-pyrrolo[3,2-b]pyrrole-1-carbonyl]-3-methyl-butyl}-4-dimethylamino-benzamide], the Ki in experiment [1] (setting [3]) and in experiment [2] was less than 5 µM each time.
Regarding `CC(C)C[C@H](NC(=O)c1cccc(N(C)C)c1)C(=O)N1CC[C@@H]2[C@H]1C(=O)CN2C(=O)c1cccc(S(C)(=O)=O)c1` [Example 59, (3aR,6aS)-3-Dimethylamino-N-{(1S)-1-[4-(3-methanesulfonyl-benzoyl)-6-oxo-hexahydro-pyrrolo[3,2-b]pyrrole-1-carbonyl]-3-methyl-butyl}-benzamide], the Ki in experiment [1] (setting [3]) and in experiment [2] was less than 5 µM in each case.
As for `O=C(N[C@@H](CC1CCCCC1)C(=O)N1CC[C@@H]2[C@H]1C(=O)CN2C(=O)c1ccccc1)c1ccsc1` [Example 250, (3aR,6aS)-Thiophene-3-carboxylic acid [(1S)-2-(4-benzoyl-6-oxo-hexahydro-pyrrolo[3,2-b]pyrrole-1-yl)-1-cyclohexylmethyl-2-oxo-ethyl]-amide], the Ki in experiment [1] (setting [4]) is greater than 5 µM.
Turning to `CC(C)C[C@H](NC(=O)c1cc2ccccc2s1)C(=O)N1CC[C@@H]2[C@H]1C(=O)CN2C(=O)c1ccccc1` [Example 7, (3aR,6aS)-Benzo[b]thiophene-2-carboxylic acid [(1S)-1-(4-benzoyl-6-oxo-hexahydro-pyrrolo[3,2-b]pyrrole-1-carbonyl)-3-methyl-butyl]-amide], the inhibitory constant (Ki) in experiment [1] (setting [3]) and in experiment [2] was less than 5 µM each time.
For the compound `CC(C)C[C@H](NC(=O)c1ccc2ncsc2c1)C(=O)N1CC[C@@H]2[C@H]1C(=O)CN2C(=O)c1ccccc1` [Example 90, (3aR,6aS)-Benzothiazole-6-carboxylic acid [(1S)-1-(4-benzoyl-6-oxo-hexahydro-pyrrolo[3,2-b]pyrrole-1-carbonyl)-3-methyl-butyl]-amide], the Ki in experiment [1] (setting [3]) and in experiment [2] was less than 5 µM in each case.
